Converted amounts (≈) assume the structure as drawn. Like-named read-outs stand apart in the source and are kept apart here.
Columns and labels:
staphylococcus aeurus = format: cell-based; details: Fli 4 ppm
Method: Strains Gram+ and Gram- (wild-type hospital) having a resistant phenotype vis a vis standard firstly and secondly used antibiotherapy were experimented on activated antibiotics.
250 experiments were conducted on the following strains: Streptococcus group B, C, D, F, G, Staphylococcus aureus, Staphylococcus epidermitis, Klebsiella pneumoniae, Klebsiella spirochete, Klebsiella oxytoca, Proteus mirabilis, Serratia marcescens, Escherichia coli, Citrobacter freundii, Enterobacter cloacae, Enterobacter calcoaceticus, Salmonella spirochete, Salmonella typhimurium, Pseudomonas aeruginosa, Haemophilus influenzae, Haemophilus sphrophilus, Acinetobacter calcoaeticus. […]

Group C streptococcus = experiment: Activity on wild-type hospital strains responsible for skin infections; format: cell-based; details: Streptococcus
Escherichia coli = experiment: as above; format: cell-based; details: Escherichia coli, read-out: 100% inhibitory concentration
spermatozoa [1] = details: alone; cited from earlier work
spermatozoa [2] = experiment: SANDERS-CRAMER total spermicidal test according to IPPF standards; format: cell-based
Pseudomonas aeruginosa [3] = experiment: MIC on 200 wild-type strains of Pseudomonas aeruginosa (Examples 19 and 20); format: cell-based
Method: With the same methodology as above, the MIC values of benzalkonium chloride alone, in the presence of the KATHON CG (registered trademark) preservative (1 mg/l), and then in the presence of KATHON CG (registered trademark) (1 mg/l) and lithium fluoride (1 mg/l), were determined. 200 wild-type strains of Pseudomonas aeruginosa were tested.
The same trial as in Example 19 was performed, but with nonoxinol 9 as the primary active principle: 200 wild-type strains of Pseudomonas aeruginosa were also tested.

Gardnerella vaginalis = experiment: Number of strains inhibited, bactericidal substance incorporated in culture medium (first trial); format: cell-based; details: NaF or LiF 1 mg/l where added
Method: In the first trial, the sample of bactericidal substance was incorporated directly in the specific culture edium of the microorganism. A concentration series of the bactericidal substance was prepared in the geometric ratio of 2, from 400 μg/ml to 1.56 μg/ml. The cell concentration used in the seeding of the Petri dishes was […]. A 24-hour incubation was performed at 37° C. and then, for each wild-type strain tested, the concentration of primary principle destroying all the microorganisms (see method of Professor F. CATALAN et al., Institut A. FOURNIER, PARIS) was determined. The trail was performed on 32 wild-type strains of Gardnerella vaginalis originating from hospital sources and with benzalkonium chloride and then nonoxinol 9 as active principles, and with sodium fluoride NaF at a concentration of 1 mg/l and then lithium fluoride LiF at a concentration of 1 mg/l as activating principles.

Pseudomonas aeruginosa [4] = experiment: "chess" test, dilution in liquid medium, Trial 4; format: cell-based
Text: (§1) Substance A was gentamicine
The strain was pseudomonas aeruginosa (wild-type hospital resistant strain)

[5] = system: pseudomonas aeruginosa and Escherichia coli; format: cell-based
Text: It is known that a strain develops a resistance against an antibiotic substance with which it is left in contact, by a phenotypical mutation procedure.
This phenomena has been studied on pseudomonas aeruginosa and Escherichia coli (wild-type hospital strains) which commonly develop resistance against aminosides. The antibiotic substance choosen was thus gentamicine which is an aminoside antibiotic.
And the growth of the resistance was studied with gentamicine alone, then with gentamicine in presence of Fli.
The trial was conducted on 12 days, and the MIC of gentamicine alone and of gentamicine in presence of Fli (4 ppm) was determined each day on transportplates in liquid medium with a serie of dilution in Mueller/Hinton agar.
The MBC (Minimal Bactericide Concentration) was also determined from the solution after determination of the MIC seeded on agar adapted to the strain. The MBC is read for a percentage of survivors less than 0,20%.

serratia marcescens [6] = experiment: MIC of gentamicine, inclined agar with concentration gradient; format: cell-based
Method: (§2) The strains used were wild-type hospital strains having a resistant phenotype as regards gentamicine: pseudomonas aeruginosa, proteus mirabilis, serratia marcescens.
(§3) The phenotype of the strains was determined by diffusion in gradient on selective agar. Then, each group of strains having the same phenotype (resistant or sensible) was seeded on inclined agar having a gradient of concentration of the composition.
(§4) This methodology is explained by SZYBALSKI and BRYSON in "Selection de mutants resistant aux antibiotiques", L'antibiogramme, Vigot, p. 259-260.
(§5) The results are shown in the following table illustrating the MIC of gentamicine (aminoglycoside antibiotic).
(§6) x/y means a concentration read between x ppm and y ppm.

Pseudomonas aeruginosa [7] = experiment: as above; format: cell-based; details: in presence of Fli at 16; RESISTANT strains
Method: as §2, §3, §4, §5, §6

salmonella spirochete = experiment: "Time killing curve", optical density at 600 nm; format: cell-based; details: Fli 32 ppm
Method: (§7) The kinetics of the bacterial growth of serratia marcescens and salmonella spirochete has been studied with the "Time killing curve" methodology, for gentamicine (64 ppm) alone, Fli (32 ppm) and gentamicine (64 ppm) in presence of Fli (32 ppm). The bacterial growth is determined by spectrophotometric reading of the optical density for a wavelength of 600 nm.
(§8) The following table illustrates the optical density (1/100) obtained: […]

serratia marcescens [8] = experiment: "Time killing curve", optical density at 600 nm; format: cell-based; details: Fli 32 ppm
Method: as §7, §8

proteus mirabilis = experiment: "chess" test, dilution in liquid medium, Trial 2; format: cell-based
Text: as §1
The strain was a very resistant proteus mirabilis (wild-type hospital)

Klebsiella pneumoniae = experiment: "chess" test, dilution in liquid medium, Trial 3; format: cell-based
Text: as §1
The strain was Klebsiella pneumoniae (wild-type hospital strain)

[9] = A (gentamicine) in presence of B (Fli)

CC[C@H]1OC(=O)[C@H](C)[C@@H](O[C@H]2C[C@@](C)(OC)[C@@H](O)[C@H](C)O2)[C@H](C)[C@@H](O[C@@H]2O[C@H](C)C[C@H](N(C)C)[C@H]2O)[C@](C)(O)C[C@@H](C)C(=O)[C@H](C)[C@@H](O)[C@]1(C)O [ERYTHROMYCIN, erythromycin]
phenotype in presence of Fli (staphylococcus aeurus): the resistant phenotype was not changed | MIC (Group C streptococcus; read-out: 100% inhibitory concentration, alone): > 0.25 µg/mL | MIC (Group C streptococcus; read-out: 100% inhibitory concentration, in the presence of LiF 4 ppm): 0.125 µg/mL | MIC (Escherichia coli; alone): > 64 µg/mL | MIC (Escherichia coli; in the presence of LiF 8 ppm): 32 µg/mL

F [F^- ions]
MIC (minimal inhibitory concentration) (spermatozoa [1]): 5 ppm | MIC, equivalent in % (spermatozoa [1]): 0.0005%

[Li+] [Li^+ ions]
spermicidal effect (spermatozoa [2]; in words): A spermicidal effect

CCCCCCCCCc1ccc(OCCOCCOCCOCCOCCOCCOCCOCCOCCO)cc1 [Nonoxinol 9]
MIC (Pseudomonas aeruginosa [3]; + KATHON CG (1 mg/l) + LiF (1 mg/l), strain Tic R βLac^+): 64 µg/mL | MIC (Pseudomonas aeruginosa [3]; + KATHON CG (1 mg/l) + LiF (1 mg/l), strain Tic R βLac^+ OXA): 64 µg/mL | MIC (Pseudomonas aeruginosa [3]; + KATHON CG (1 mg/l) + LiF (1 mg/l), strain Tic R βLac^+ PSE): 64 µg/mL | MIC (Pseudomonas aeruginosa [3]; + KATHON CG (1 mg/l) + LiF (1 mg/l), strain Tic R βLac^+ TEM): 64 µg/mL | MIC (Pseudomonas aeruginosa [3]; + KATHON CG (1 mg/l) + LiF (1 mg/l), strain Tic R βLac^+ cephalosporinase): 128 µg/mL | MIC (Pseudomonas aeruginosa [3]; + KATHON CG (1 mg/l) + LiF (1 mg/l), strain Tic S βLac^-): 32 µg/mL | MIC (Pseudomonas aeruginosa [3]; alone, strain Tic R βLac^+): 128 µg/mL (≈ 208 µM) | MIC (Pseudomonas aeruginosa [3]; alone, strain Tic R βLac^+ OXA): 128 µg/mL (≈ 208 µM) | MIC (Pseudomonas aeruginosa [3]; alone, strain Tic R βLac^+ PSE): 64 µg/mL (≈ 104 µM) | MIC (Pseudomonas aeruginosa [3]; alone, strain Tic R βLac^+ TEM): 128 µg/mL (≈ 208 µM) | MIC (Pseudomonas aeruginosa [3]; alone, strain Tic R βLac^+ cephalosporinase): 256 µg/mL (≈ 415 µM) | MIC (Pseudomonas aeruginosa [3]; alone, strain Tic S βLac^-): 64 µg/mL (≈ 104 µM) | number of strains inhibited out of the 32 tested (Gardnerella vaginalis; primary active principle 1.56 mg/l): 0 | number of strains inhibited out of the 32 tested (Gardnerella vaginalis; primary active principle 3.125 mg/l): 0 | number of strains inhibited out of the 32 tested (Gardnerella vaginalis; primary active principle 6.25 mg/l): 0 | number of strains inhibited out of the 32 tested (Gardnerella vaginalis; primary active principle 12.5 mg/l): 0 | number of strains inhibited out of the 32 tested (Gardnerella vaginalis; primary active principle 25 mg/l): 4 | number of strains inhibited out of the 32 tested (Gardnerella vaginalis; primary active principle 50 mg/l): 6 | number of strains inhibited out of the 32 tested (Gardnerella vaginalis; primary active principle 100 mg/l): 10 | number of strains inhibited out of the 32 tested (Gardnerella vaginalis; primary active principle 200 mg/l): 25 | number of strains inhibited out of the 32 tested (Gardnerella vaginalis; primary active principle 400 mg/l): 32

[Cl-].[Li+] [lithium chloride]
MIC (spermatozoa [2]; alone): 20 ppm | MIC, equivalent in % (spermatozoa [2]; alone): 0.002%

gentamicine
MIC A/B (Pseudomonas aeruginosa [4]; [9]): 16 µg/mL | MIC alone (MIC A, MIC B) (Pseudomonas aeruginosa [4]; alone, wild-type hospital resistant strain): 64 µg/mL | day the resistance appears ([5]; gentamicine alone): the third or fourth day | day the resistance appears ([5]; gentamicine with Fli (4 ppm)): the fourth or sixth day | MIC (serratia marcescens [6]; in presence of Fli at 8, SENSIBLE strains): 8 ppm or mg/l | MIC (serratia marcescens [6]; in presence of Fli at 16, RESISTANT strains): 32 ppm or mg/l | MIC (Pseudomonas aeruginosa [7]): 64 ppm or mg/l | optical density (1/100) (salmonella spirochete; 3 h 00, gentamicine 64 ppm): 8 1/100 | optical density (1/100) (salmonella spirochete; 6 h 00, gentamicine 64 ppm): 7 1/100 | optical density (1/100) (serratia marcescens [8]; 6 h 00, gentamicine 64 ppm): 5 1/100 | optical density (1/100) (serratia marcescens [8]; 24 h 00, gentamicine 64 ppm): 4 1/100 | MIC A/B (proteus mirabilis; [9]): 16 µg/mL | MIC alone (MIC A, MIC B) (proteus mirabilis; alone, very resistant wild-type hospital strain): 64 µg/mL | MIC A/B (Klebsiella pneumoniae; [9]): 4 µg/mL | MIC alone (MIC A, MIC B) (Klebsiella pneumoniae; alone, wild-type hospital strain): 16 µg/mL

Reference: patent publication US5800838A, “Composition that inhibits or destroys at least one unicellular living organism containing fluorine F- and Lithium li+” (priority 1987, dated 1998)
